Results as given in patent publication US5202315A, “Cephalosporin compounds” (Lucky, Ltd., priority 1989, dated 1993).
Converted amounts (≈) assume the structure as drawn.

Columns and labels:
Assay in all cases: Antibacterial activity, MIC
Type in all cases: cell-based
[1] = system: Staphylococcus aureus ATCC 10537; settings: ATCC10537, ATCC 10537, agar two-fold dilution, 37° C., 20 hours, read-out: MIC
Protocol: (§1) Also, the in vitro antibacterial activity was determined by the by a two-fold dilution method as described below:
(§2) That is, the two-fold serial dilutions of the compound were made dispersed in Muller-Hinton agar medium. 2 μl of standard test strain which had the 10^7 CFU per ml was inoculated on the medium, and was incubated at 37° C. for 20 hours.

[2] = system: Pseudomonas aeruginosa ATCC 10145; settings: ATCC10145, ATCC 10145, agar two-fold dilution, 37° C., 20 hours, read-out: MIC
Protocol: as §1, §2

[3] = system: Escherichia coli ATCC 10536; settings: ATCC10536, agar two-fold dilution, 37° C., 20 hours
Protocol: as §1, §2

[4] = system: Providencia rettgeri ATCC 9250; settings: ATCC9250, agar two-fold dilution, 37° C., 20 hours
Protocol: as §1, §2

[5] = system: Morganella morganii ATCC 8076h; settings: ATCC8076H, agar two-fold dilution, 37° C., 20 hours
Protocol: as §1, §2

[6] = system: Enterobacter aerogenes ATCC 29751; settings: Klebsiella aerogenes, ATCC29751; ATCC 29751; agar two-fold dilution, 37° C., 20 hours; read-out: MIC
Protocol: as §1, §2

[7] = system: Bacillus cereus ATCC 11778; settings: ATCC11778, ATCC 11778, agar two-fold dilution, 37° C., 20 hours, read-out: MIC
Protocol: as §1, §2

[8] = system: Staphylococcus aureus ATCC 6538p; settings: ATCC6538P, ATCC 6538p, agar two-fold dilution, 37° C., 20 hours, read-out: MIC
Protocol: as §1, §2

[9] = system: Salmonella typhimurium ATCC 14028; settings: Salmonella enterica; ATCC 14028; agar two-fold dilution, 37° C., 20 hours; read-out: MIC
Protocol: as §1, §2

[10] = system: Streptococcus faecalis ATCC 29212; settings: Enterococcus faecalis, ATCC29212; ATCC 29212; agar two-fold dilution, 37° C., 20 hours; read-out: MIC
Protocol: as §1, §2

[11] = system: Pseudomonas aeruginosa ATCC 27853; settings: ATCC27853, ATCC 27853, agar two-fold dilution, 37° C., 20 hours, read-out: MIC
Protocol: as §1, §2

[12] = system: Staphylococcus epidermidis ATCC 12228; settings: ATCC12228, ATCC 12228, agar two-fold dilution, 37° C., 20 hours, read-out: MIC
Protocol: as §1, §2

[13] = system: Acinetobacter calcoaceticus ATCC 15473; settings: ATCC15473, ATCC 15473, agar two-fold dilution, 37° C., 20 hours, read-out: MIC
Protocol: as §1, §2

[14] = system: Proteus mirabilis ATCC 25933; settings: ATCC25933, ATCC 25933, agar two-fold dilution, 37° C., 20 hours, read-out: MIC
Protocol: as §1, §2

[15] = system: Shigella sonnei ATCC 11060; settings: ATCC11060, ATCC 11060, agar two-fold dilution, 37° C., 20 hours, read-out: MIC
Protocol: as §1, §2

[16] = system: Serratia marcescens ATCC 27117; settings: ATCC27117, ATCC 27117, agar two-fold dilution, 37° C., 20 hours, read-out: MIC
Protocol: as §1, §2

[17] = system: Klebsiella pneumoniae ATCC 10031; settings: ATCC10031, ATCC 10031, agar two-fold dilution, 37° C., 20 hours, read-out: MIC
Protocol: as §1, §2

[18] = system: Citrobacter freundii ATCC 8090; settings: ATCC8090, ATCC 8090, agar two-fold dilution, 37° C., 20 hours, read-out: MIC
Protocol: as §1, §2

[19] = system: Enterobacter cloacae ATCC 27508; settings: ATCC27508, ATCC 27508, agar two-fold dilution, 37° C., 20 hours, read-out: MIC
Protocol: as §1, §2

[20] = system: Shigella flexneri ATCC 11836; settings: ATCC11836, agar two-fold dilution, 37° C., 20 hours
Protocol: as §1, §2

[21] = system: Proteus vulgaris ATCC 6059; settings: ATCC6059, ATCC 6059, agar two-fold dilution, 37° C., 20 hours, read-out: MIC
Protocol: as §1, §2

[22] = system: Pseudomonas aeruginosa ATCC 25619; settings: ATCC25619, ATCC 25619, agar two-fold dilution, 37° C., 20 hours, read-out: MIC
Protocol: as §1, §2

[23] = system: Escherichia coli ATCC 25922; settings: ATCC25922, agar two-fold dilution, 37° C., 20 hours
Protocol: as §1, §2

[24] = system: Micrococcus luteus ATCC 9341; settings: ATCC9341, ATCC 9341, agar two-fold dilution, 37° C., 20 hours, read-out: MIC
Protocol: as §1, §2

[25] = system: Bacillus megaterium ATCC 9885; settings: Priestia megaterium, ATCC9885; ATCC 9885; agar two-fold dilution, 37° C., 20 hours; read-out: MIC
Protocol: as §1, §2

Structure (SMILES)	MIC [1] [µg/mL]	MIC [2] [µg/mL]	MIC [3] [µg/mL]	MIC [4] [µg/mL]	MIC [5] [µg/mL]	MIC [6] [µg/mL]	MIC [7] [µg/mL]	MIC [8] [µg/mL]	MIC [9] [µg/mL]	MIC [10] [µg/mL]	MIC [11] [µg/mL]	MIC [12] [µg/mL]	MIC [13] [µg/mL]	MIC [14] [µg/mL]	MIC [15] [µg/mL]	MIC [16] [µg/mL]	MIC [17] [µg/mL]	MIC [18] [µg/mL]	MIC [19] [µg/mL]	MIC [20] [µg/mL]	further results
CC[n+]1c(N)cc(N)nc1SCC1=C(C(=O)[O-])N2C(=O)C(NC(=O)/C(=N\OC)c3nsc(N)n3)C2SC1 (stereo not shown) [Compound I-25]	0.5 (≈ 0.882 µM)	16 (≈ 28.2 µM)	0.13 (≈ 0.229 µM)	0.016 (≈ 0.0282 µM)	0.031 (≈ 0.0547 µM)	1 (≈ 1.76 µM)	32 (≈ 56.5 µM)	0.5 (≈ 0.882 µM)	0.25 (≈ 0.441 µM)	32 (≈ 56.5 µM)	4 (≈ 7.06 µM)	0.13 (≈ 0.229 µM)	2 (≈ 3.53 µM)	1 (≈ 1.76 µM)	0.13 (≈ 0.229 µM)	0.25 (≈ 0.441 µM)	0.031 (≈ 0.0547 µM)	0.13 (≈ 0.229 µM)	0.031 (≈ 0.0547 µM)	0.031 (≈ 0.0547 µM)	MIC [21]: 1 µg/mL (≈ 1.76 µM); MIC [22]: 4 µg/mL (≈ 7.06 µM); MIC [23]: 0.13 µg/mL (≈ 0.229 µM); MIC [24]: 0.031 µg/mL (≈ 0.0547 µM); MIC [25]: 0.13 µg/mL (≈ 0.229 µM)
C[n+]1c(N)cc(N)nc1SCC1=C(C(=O)[O-])N2C(=O)C(NC(=O)/C(=N\OC(C)(C)C(=O)O)c3nsc(N)n3)C2SC1 (stereo not shown) [Compound I-26]	8 (≈ 12.8 µM)	2 (≈ 3.2 µM)	0.13 (≈ 0.208 µM)	≤ 0.008	≤ 0.008	1 (≈ 1.6 µM)	> 128	8 (≈ 12.8 µM)	0.5 (≈ 0.8 µM)	> 128	2 (≈ 3.2 µM)	4 (≈ 6.4 µM)	4 (≈ 6.4 µM)	0.13 (≈ 0.208 µM)	0.13 (≈ 0.208 µM)	0.25 (≈ 0.4 µM)	0.13 (≈ 0.208 µM)	0.13 (≈ 0.208 µM)	0.031 (≈ 0.0496 µM)	0.063 (≈ 0.101 µM)	MIC [21]: 0.13 µg/mL (≈ 0.208 µM); MIC [22]: 2 µg/mL (≈ 3.2 µM); MIC [23]: 0.13 µg/mL (≈ 0.208 µM); MIC [24]: 1 µg/mL (≈ 1.6 µM); MIC [25]: 1 µg/mL (≈ 1.6 µM)
CC[n+]1c(N)cc(N)nc1SCC1=C(C(=O)[O-])N2C(=O)C(NC(=O)/C(=N\OC(C)(C)C(=O)O)c3nsc(N)n3)C2SC1 (stereo not shown) [Compound I-27]	4 (≈ 6.26 µM)	4 (≈ 6.26 µM)	0.13 (≈ 0.204 µM)	≤ 0.008	≤ 0.008	2 (≈ 3.13 µM)	> 128	8 (≈ 12.5 µM)	0.5 (≈ 0.783 µM)	> 128	2 (≈ 3.13 µM)	4 (≈ 6.26 µM)	8 (≈ 12.5 µM)	0.13 (≈ 0.204 µM)	0.13 (≈ 0.204 µM)	0.25 (≈ 0.391 µM)	0.063 (≈ 0.0986 µM)	0.25 (≈ 0.391 µM)	0.063 (≈ 0.0986 µM)	0.25 (≈ 0.391 µM)	MIC [21]: 0.13 µg/mL (≈ 0.204 µM); MIC [22]: 2 µg/mL (≈ 3.13 µM); MIC [23]: 0.13 µg/mL (≈ 0.204 µM); MIC [24]: 0.5 µg/mL (≈ 0.783 µM); MIC [25]: 1 µg/mL (≈ 1.57 µM)
CCC[n+]1c(N)cc(N)nc1SCC1=C(C(=O)[O-])N2C(=O)C(NC(=O)/C(=N\OC(C)(C)C(=O)O)c3nsc(N)n3)C2SC1 (stereo not shown) [Compound I-28]	4 (≈ 6.13 µM)	4 (≈ 6.13 µM)	0.13 (≈ 0.199 µM)	≤ 0.008	≤ 0.008	4 (≈ 6.13 µM)	128 (≈ 196 µM)	8 (≈ 12.3 µM)	0.5 (≈ 0.766 µM)	> 128	2 (≈ 3.06 µM)	4 (≈ 6.13 µM)	8 (≈ 12.3 µM)	0.13 (≈ 0.199 µM)	0.13 (≈ 0.199 µM)	0.25 (≈ 0.383 µM)	0.13 (≈ 0.199 µM)	0.13 (≈ 0.199 µM)	0.031 (≈ 0.0475 µM)	0.063 (≈ 0.0965 µM)	MIC [21]: 0.25 µg/mL (≈ 0.383 µM); MIC [22]: 2 µg/mL (≈ 3.06 µM); MIC [23]: 0.13 µg/mL (≈ 0.199 µM); MIC [24]: 0.5 µg/mL (≈ 0.766 µM); MIC [25]: 0.25 µg/mL (≈ 0.383 µM)
